Where a name gives a salt, the structure may show the parent alone.
Columns and labels:
AChE = assay type: in vivo, rat; details: scopolamine model, listed as pure drug
Method: Samples were then centrifuged at 10,000 rpm for 5 min, and plasma was stored at − 70 °C until analysis.
Thiocholine, which was produced due to the hydrolysis of acetylthiocholine (ACTI) by AChE, was estimated by making it react with 5, 5′-dithiobis-(2-nitrobenzoic acid) (DTNB). The chemical, 5-thio-2-nitrobenzoic acid (yellow color complex), which was released due to reaction was estimated using a UV spectrophotometer in the range of 400 to 420 nm with maximal absorption at 412 nm. One hundred microliter of blank rat plasma was taken in the polypropylene vials. To this, 2.8 mL of phosphate buffer (0.01 M, pH 8) and 100 µL of DTNB reagents were added and mixed well. Then, 20 µL of ACTI (26.01 mg/mL of Milli-Q water) was added to the contents of the cuvette to initiate the enzyme reaction. The reaction kinetics was monitored at different time intervals (0, 1, 2, 3, 4 min), and absorbance was noted. 2.8 mL buffer (0.01 M, pH 8.0) and 100 µL DTNB reagent served as blank. Concentrations in the range of 0.03–30 mM were prepared using methanol as a diluent. […] Substrate concentration and reaction time were optimized such that sufficient concentration of ACTI is available to bind with the enzyme to initiate the reaction and also it should not saturate the enzyme. In this study, varying concentrations (100–1000 µM) of ACTI were prepared, and reaction kinetics were observed. In general, the maximum time should be either 2–4 min or even less, because the enzyme might undergo degradation. In the present study, up to 4 min of reaction kinetics (changing the optical density or absorbance) was measured. One unit of AChE activity is defined as the number of µmol of acetylthiocholine iodide hydrolyzed per minute. The specific activity of AChE is expressed in moles/min/mg of protein (Kaur et al. [2015]): AChEActivity=(abs.permin×1000×volumeofenzyme)/(13600×TRM)AChEActivity=abovevalue×1000(nanomolar/min/mL)
where 13,600 = molar extinction coefficient of DTNB: 1000-molar conversion factor: (TRM) total reaction mixture 3 mL: volume of enzyme (0.1 mL).

cholinesterase enzyme = system: cholinesterase enzyme; design: method as in Emerich and Walsh [1990]; details: 2.5 mg/kg via the oral route; ref Emerich and Walsh [1990]; cited from earlier work
[1] = design: method as in Jann [2000]; details: ref Jann [2000]; cited from earlier work
[2] = In vitro release studies, release kinetics and mechanism (dialysis sac); assay type: physicochemical; details: PBS pH 7.4, dialysis sac
Method: In vitro release studies were performed using dialysis sac (Sigma membrane, MW cut-off 13 kDa) method. Two milligram equivalent of rivastigmine-loaded nanoparticles were weighed and suspended in 2 mL of phosphate buffer saline (pH 7.4). Samples were withdrawn at predetermined time intervals and analyzed by HPLC method. In order to maintain sink conditions, an equal volume of PBS was replaced. The whole experiment was performed at […]. Based on the cumulative drug release vs. time profiles, the release kinetics models and mechanism were proposed (Akbuǧa and Bergişadi [1997]).

[3] = design: method as in Arumugam [2009]; details: male vs female rats; ref Arumugam [2009]; cited from earlier work
[4] = design: method as in Jann [2000]; details: ref Jann [2000], cited from earlier work

With `CCN(C)C(=O)Oc1cccc([C@H](C)N(C)C)c1` [Rivastigmine, Rivastigmine hydrogen tartrate] as the molecule, how does the “peak AChE inhibition (Emax, maximum inhibition) in plasma” value (AChE) read?
The value was 71.95%.

What about the “inhibition of the cholinesterase enzyme in the cortex and hippocampus” value (cholinesterase enzyme) of the same molecule?
Its value is 20–30%.

What about the “log P predicted” value [1] of the same molecule?
The value was 2.45.

What about the “drug released within 2 h” value [2] of the same molecule?
Its value is 85%.

And the “elimination rate constant, male rats versus female rats” value [3]?
Its value is 2.5 fold.

And the bioavailability ([4]; oral)?
Its bioavailability is 36–40%.

What about the plasma elimination half-life [4] of the same molecule?
The plasma elimination half-life was 1.5 h.

Source: paper PMC8298375 (Naunyn-Schmiedeberg's Archives of Pharmacology, 2021)
